Measured values taken from ChEMBL document CHEMBL1153245, “A profile of the in vitro anti-tumor activity of imidazolium-based ionic liquids” (2010).

Key:
Type in all cases: functional
MOLT-4 = experiment: Anticancer activity against human MOLT4 cells assessed cell growth at 10 uM after 48 hrs by sulforhodamine B assay relative to control
A498 = experiment: Anticancer activity against human A498 cells assessed cell growth at 10 uM after 48 hrs by sulforhodamine B assay relative to control
UO-31 = experiment: Anticancer activity against human UO31 cells assessed cell growth at 10 uM after 48 hrs by sulforhodamine B assay relative to control
RXF 393 = experiment: Anticancer activity against human RXF393 cells assessed cell growth at 10 uM after 48 hrs by sulforhodamine B assay relative to control
NCI/ADR-RES = experiment: Anticancer activity against human NCI/ADR-RES cells assessed cell growth at 10 uM after 48 hrs by sulforhodamine B assay relative to control
K562 = experiment: Anticancer activity against human K562 cells assessed cell growth at 10 uM after 48 hrs by sulforhodamine B assay relative to control
IGROV-1 = experiment: Anticancer activity against human IGROV1 cells assessed cell growth at 10 uM after 48 hrs by sulforhodamine B assay relative to control
DU-145 = experiment: Anticancer activity against human DU145 cells assessed cell growth at 10 uM after 48 hrs by sulforhodamine B assay relative to control
NCI-H522 = experiment: Anticancer activity against human NCI-H522 cells assessed cell growth at 10 uM after 48 hrs by sulforhodamine B assay relative to control
HCT-116 = experiment: Anticancer activity against human HCT116 cells assessed cell growth at 10 uM after 48 hrs by sulforhodamine B assay relative to control
KM12 = experiment: Anticancer activity against human KM12 cells assessed cell growth at 10 uM after 48 hrs by sulforhodamine B assay relative to control
OVCAR-4 = experiment: Anticancer activity against human OVCAR4 cells assessed cell growth at 10 uM after 48 hrs by sulforhodamine B assay relative to control
CCRF-CEM = experiment: Anticancer activity against human CCRF-CEM cells assessed cell growth at 10 uM after 48 hrs by sulforhodamine B assay relative to control
ACHN = experiment: Anticancer activity against human ACHN cells assessed cell growth at 10 uM after 48 hrs by sulforhodamine B assay relative to control
UACC-62 = experiment: Anticancer activity against human UACC62 cells assessed cell growth at 10 uM after 48 hrs by sulforhodamine B assay relative to control
HOP-92 = experiment: Anticancer activity against human HOP92 cells assessed cell growth at 10 uM after 48 hrs by sulforhodamine B assay relative to control
OVCAR-3 = experiment: Anticancer activity against human OVCAR-3 cells assessed cell growth at 10 uM after 48 hrs by sulforhodamine B assay relative to control
TK-10 = experiment: Anticancer activity against human TK10 cells assessed cell growth at 10 uM after 48 hrs by sulforhodamine B assay relative to control
CAKI-1 = experiment: Anticancer activity against human Caki1 cells assessed cell growth at 10 uM after 48 hrs by sulforhodamine B assay relative to control
LOX IMVI = experiment: Anticancer activity against human LOXIMVI cells assessed cell growth at 10 uM after 48 hrs by sulforhodamine B assay relative to control
NCI-H322M = experiment: Anticancer activity against human NCI-H322M cells assessed cell growth at 10 uM after 48 hrs by sulforhodamine B assay relative to control
MDA-MB-231 = experiment: Anticancer activity against human MDA-MB-231 cells assessed cell growth at 10 uM after 48 hrs by sulforhodamine B assay relative to control
[1] = Anticancer activity against human RPMI8266 cells assessed cell growth at 10 uM after 48 hrs by sulforhodamine B assay relative to control
HL-60(TB) = experiment: Anticancer activity against human HL-60(TB) cells assessed cell growth at 10 uM after 48 hrs by sulforhodamine B assay relative to control
SR = experiment: Anticancer activity against human SR cells assessed cell growth at 10 uM after 48 hrs by sulforhodamine B assay relative to control
HOP-62 = experiment: Anticancer activity against human HOP62 cells assessed cell growth at 10 uM after 48 hrs by sulforhodamine B assay relative to control
HCC 2998 = experiment: Anticancer activity against human HCC2998 cells assessed cell growth at 10 uM after 48 hrs by sulforhodamine B assay relative to control
T47D = experiment: Anticancer activity against human T47D cells assessed cell growth at 10 uM after 48 hrs by sulforhodamine B assay relative to control
NCI-H460 = experiment: Anticancer activity against human NCI-H460 cells assessed cell growth at 10 uM after 48 hrs by sulforhodamine B assay relative to control
SK-OV-3 = experiment: Anticancer activity against human SKOV3 cells assessed cell growth at 10 uM after 48 hrs by sulforhodamine B assay relative to control
SF-295 = experiment: Anticancer activity against human SF295 cells assessed cell growth at 10 uM after 48 hrs by sulforhodamine B assay relative to control
SW-620 = experiment: Anticancer activity against human SW620 cells assessed cell growth at 10 uM after 48 hrs by sulforhodamine B assay relative to control
PC-3 = experiment: Anticancer activity against human PC3 cells assessed cell growth at 10 uM after 48 hrs by sulforhodamine B assay relative to control
OVCAR-5 = experiment: Anticancer activity against human OVCAR5 cells assessed cell growth at 10 uM after 48 hrs by sulforhodamine B assay relative to control
NCI-H23 = experiment: Anticancer activity against human NCI-H23 cells assessed cell growth at 10 uM after 48 hrs by sulforhodamine B assay relative to control
SF-539 = experiment: Anticancer activity against human SF539 cells assessed cell growth at 10 uM after 48 hrs by sulforhodamine B assay relative to control
SN12C = experiment: Anticancer activity against human SN12C cells assessed cell growth at 10 uM after 48 hrs by sulforhodamine B assay relative to control
M14 = experiment: Anticancer activity against human M14 cells assessed cell growth at 10 uM after 48 hrs by sulforhodamine B assay relative to control
A549 = experiment: Anticancer activity against human A549 cells assessed cell growth at 10 uM after 48 hrs by sulforhodamine B assay relative to control
OVCAR-8 = experiment: Anticancer activity against human OVCAR8 cells assessed cell growth at 10 uM after 48 hrs by sulforhodamine B assay relative to control
SNB-75 = experiment: Anticancer activity against human SNB75 cells assessed cell growth at 10 uM after 48 hrs by sulforhodamine B assay relative to control
COLO 205 = experiment: Anticancer activity against human COLO205 cells assessed cell growth at 10 uM after 48 hrs by sulforhodamine B assay relative to control
SF-268 = experiment: Anticancer activity against human SF268 cells assessed cell growth at 10 uM after 48 hrs by sulforhodamine B assay relative to control

CCCCCCCCCCCCCCCCCC[n+]1ccn(C)c1.F[P-](F)(F)(F)(F)F
Activity (MOLT-4): 2.98% | Activity (A498): -51.56% | Activity (UO-31): -29.46% | Activity (RXF 393): -52.84% | Activity (NCI/ADR-RES): 22.73% | Activity (K562): 14.23% | Activity (IGROV-1): -12.15% | Activity (DU-145): -12.17% | Activity (NCI-H522): -53.86% | Activity (HCT-116): -27.74% | Activity (KM12): -60.81% | Activity (OVCAR-4): -10.51% | Activity (CCRF-CEM): 13.72% | Activity (ACHN): 5.45% | Activity (UACC-62): -65.74% | Activity (HOP-92): -47.8% | Activity (OVCAR-3): -57.4% | Activity (TK-10): -59.16% | Activity (CAKI-1): -80.74% | Activity (LOX IMVI): -13.99% | Activity (NCI-H322M): 11.62% | Activity (MDA-MB-231): -32.88% | Activity [1]: 19.57% | Activity (HL-60(TB)): 2.58% | Activity (SR): 13.95% | Activity (HOP-62): -56% | Activity (HCC 2998): -83.5% | Activity (T47D): 13.4% | Activity (NCI-H460): -67.11% | Activity (SK-OV-3): -6.01% | Activity (SF-295): -28.21% | Activity (SW-620): -48.51% | Activity (PC-3): -62.83% | Activity (OVCAR-5): -60.74% | Activity (NCI-H23): -49.37% | Activity (SF-539): -80.04% | Activity (SN12C): -24.52% | Activity (M14): -28.52% | Activity (A549): -24.42% | Activity (OVCAR-8): -34.11% | Activity (SNB-75): -68.15% | Activity (COLO 205): -27.43% | Activity (SF-268): -48.33%

CCCCCC[n+]1ccn(C)c1.FC(F)(F)C(F)(F)[P-](F)(F)(F)(C(F)(F)C(F)(F)F)C(F)(F)C(F)(F)F
Activity (MOLT-4): 81.53% | Activity (A498): 75.58% | Activity (UO-31): 71.06% | Activity (RXF 393): 92.19% | Activity (NCI/ADR-RES): 54.24% | Activity (K562): 68.14% | Activity (IGROV-1): 78.12% | Activity (DU-145): 107.66% | Activity (NCI-H522): 58.3% | Activity (HCT-116): 32.03% | Activity (KM12): 91.54% | Activity (OVCAR-4): 59.66% | Activity (CCRF-CEM): 65.92% | Activity (ACHN): 54.23% | Activity (UACC-62): 68.28% | Activity (HOP-92): 85.4% | Activity (OVCAR-3): 94.84% | Activity (TK-10): 67.04% | Activity (CAKI-1): 53.43% | Activity (LOX IMVI): 59.38% | Activity (NCI-H322M): 77.95% | Activity (MDA-MB-231): 73.1% | Activity [1]: 53.67% | Activity (HL-60(TB)): 96.2% | Activity (SR): 77.17% | Activity (HOP-62): 88.12% | Activity (HCC 2998): 76.85% | Activity (T47D): 55.53% | Activity (NCI-H460): 51.46% | Activity (SK-OV-3): 85.24% | Activity (SF-295): 70.02% | Activity (SW-620): 80.17% | Activity (PC-3): 86.43% | Activity (OVCAR-5): 105.17% | Activity (NCI-H23): 45.51% | Activity (SF-539): 75.55% | Activity (SN12C): 87.26% | Activity (M14): 88.81% | Activity (A549): 56.87% | Activity (OVCAR-8): 60.84% | Activity (SNB-75): 88.07% | Activity (COLO 205): 97.72% | Activity (SF-268): 103.36%

CCCCCCCC[n+]1ccn(C)c1.F[P-](F)(F)(F)(F)F
Activity (MOLT-4): 86.46% | Activity (A498): 85.75% | Activity (UO-31): 77.77% | Activity (RXF 393): 83.22% | Activity (NCI/ADR-RES): 97.14% | Activity (K562): 70.78% | Activity (IGROV-1): 76.25% | Activity (DU-145): 99.58% | Activity (NCI-H522): 65.58% | Activity (HCT-116): 56.26% | Activity (KM12): 71.32% | Activity (OVCAR-4): 52.01% | Activity (CCRF-CEM): 84.88% | Activity (ACHN): 67.29% | Activity (UACC-62): 90.01% | Activity (HOP-92): 96.72% | Activity (OVCAR-3): 86.51% | Activity (TK-10): 57.87% | Activity (CAKI-1): 56.66% | Activity (LOX IMVI): 70.03% | Activity (NCI-H322M): 89.47% | Activity (MDA-MB-231): 65.53% | Activity [1]: 135.51% | Activity (HL-60(TB)): 91.74% | Activity (SR): 95.02% | Activity (HOP-62): 79.02% | Activity (HCC 2998): 75.73% | Activity (T47D): 73.53% | Activity (NCI-H460): 92.86% | Activity (SK-OV-3): 69.29% | Activity (SF-295): 79.54% | Activity (SW-620): 73.41% | Activity (PC-3): 74.78% | Activity (OVCAR-5): 96.06% | Activity (NCI-H23): 51.9% | Activity (SF-539): 67.02% | Activity (SN12C): 86.03% | Activity (M14): 81.87% | Activity (A549): 82.75% | Activity (OVCAR-8): 78.96% | Activity (SNB-75): 70.71% | Activity (COLO 205): 66.27% | Activity (SF-268): 96.73%

COCC[n+]1ccn(C)c1.O=S(=O)([N-]S(=O)(=O)C(F)(F)F)C(F)(F)F
Activity (MOLT-4): 105.9% | Activity (A498): 75.43% | Activity (UO-31): 71.37% | Activity (RXF 393): 103.9% | Activity (NCI/ADR-RES): 100.1% | Activity (K562): 109.67% | Activity (IGROV-1): 77.53% | Activity (DU-145): 99.43% | Activity (NCI-H522): 84.3% | Activity (HCT-116): 102.12% | Activity (KM12): 105.57% | Activity (OVCAR-4): 105.25% | Activity (CCRF-CEM): 55.66% | Activity (ACHN): 96.19% | Activity (UACC-62): 105.79% | Activity (HOP-92): 71.88% | Activity (OVCAR-3): 116.33% | Activity (TK-10): 123.77% | Activity (CAKI-1): 91.87% | Activity (LOX IMVI): 92.96% | Activity (NCI-H322M): 102.08% | Activity (MDA-MB-231): 120.14% | Activity [1]: 62.23% | Activity (HL-60(TB)): 103.77% | Activity (SR): 116.69% | Activity (HOP-62): 93.93% | Activity (HCC 2998): 101.04% | Activity (T47D): 100.59% | Activity (NCI-H460): 108.75% | Activity (SK-OV-3): 107.49% | Activity (SF-295): 112.28% | Activity (SW-620): 99.89% | Activity (PC-3): 78.17% | Activity (OVCAR-5): 112.96% | Activity (NCI-H23): 96.12% | Activity (SF-539): 94.09% | Activity (SN12C): 96.96% | Activity (M14): 110.1% | Activity (A549): 101.69% | Activity (OVCAR-8): 96.68% | Activity (SNB-75): 80.79% | Activity (COLO 205): 130.61% | Activity (SF-268): 107.22%
